Experiment: Part 2 (MAD): plasma pharmacokinetics after BID oral KAR5585 for 14 days (incl. accumulation ratios and dose proportionality)
Conditions: for AUC0-12, Day 1 / AUC0-24, Day 14: mean
[1] = 100 mg KAR5585 BID, fasted, Part 2 Cohort 1
[2] = 100 mg KAR5585 BID, fed, Cohort 2
[3] = 100 mg KAR5585 BID, fed, Part 2 Cohort 2
[4] = 100 mg/dose Fasted Cohort 1, Day 1 AM, Geo. Mean
[5] = 100 mg/dose Fasted Cohort 1, Day 1 AM, Mean
[6] = 100 mg/dose Fasted Cohort 1, Day 14, Geo. Mean
[7] = 100 mg/dose Fasted Cohort 1, Day 14, Mean
[8] = 100 mg/dose Fed Cohort 2, Day 1 AM, Geo. Mean
[9] = 100 mg/dose Fed Cohort 2, Day 1 AM, Mean
[10] = 100 mg/dose Fed Cohort 2, Day 1 PM, Geo. Mean
[11] = 100 mg/dose Fed Cohort 2, Day 1 PM, Mean
[12] = 100 mg/dose Fed Cohort 2, Day 7 AM, Geo Mean
[13] = 100 mg/dose Fed Cohort 2, Day 7 AM, Mean
[14] = 100 mg/dose Fed Cohort 2, Day 7 PM, Geo Mean
[15] = 100 mg/dose Fed Cohort 2, Day 7 PM, Mean
[16] = 100 mg/dose Fed Cohort 2, Day 14, Geo Mean
[17] = 100 mg/dose Fed Cohort 2, Day 14, Mean
[18] = 200 mg/dose Fed Cohort 3, Day 1 AM, Geo Mean
[19] = 200 mg/dose Fed Cohort 3, Day 1 AM, Mean
[20] = 200 mg/dose Fed Cohort 3, Day 1 PM, Geo. Mean

Text: Food effect was to be evaluated in Part 1, Period 2.
Pharmacokinetic data were to be summarized descriptively.

CCOC(=O)[C@@H]1CC2(CCN(c3cc(O[C@H](c4ccc(Cl)cc4-c4ccccc4)C(F)(F)F)nc(N)n3)CC2)CN1 [KAR5585, (S)-ethyl 8-(2-amino-6-((R)-1-(5-chloro-[1,1′-biphenyl]-2-yl)-2,2,2-trifluoroethoxy)pyrimidin-4-yl)-2,8-diazaspiro[4.5]decane-3-carboxylate]
half-life, Day 14 (100 mg KAR5585 BID, fasted): 2.49 h | time peak plasma concentrations were reached, Day 1 (100 mg KAR5585 BID, fasted, Cohort 1): 0.75 to 2.0 h | AUC0-12, Day 1 [1]: 62.8 ng·h/mL | AUC0-24, Day 14 [1]: 99.8 ng·h/mL | Mean CL/F, Day 1 (100 mg KAR5585 BID, fed): 2100 L/h | Mean steady-state CL/F, Day 14 (100 mg KAR5585 BID, fed): 880 L/h | mean apparent elimination half-life, Day 14 (100 mg KAR5585 BID, fed): 2.73 h | Cmax (peak mean concentration), Day 1 [2]: 18.4 ng/mL | Cmax (peak mean concentration), Day 14 [2]: 30 ng/mL | mean Cmax plasma concentrations, range on all dosing days [2]: 18.4 to 44.1 ng/mL | median time to peak plasma concentrations, range on all dosing days and times [2]: 0.75 to 4 h | AUC0-12, Day 1 [3]: 55.5 ng·h/mL | AUC0-24, Day 14 [3]: 122 ng·h/mL | C12 [4]: BLQ | CL/F [4]: 1850 L/h | Cmax/D [4]: 0.158 (ng/mL)/mg | AUC0-12 [5]: 62.8 ng·h/mL | AUC0-∞ [5]: 71.1 ng·h/mL | C12 [5]: BLQ | CL/F [5]: 2380 L/h | Cmax/D [5]: 0.167 (ng/mL)/mg | t1/2 [5]: 2.23 h | AUC0-12 [6]: 78.2 ng·h/mL | AUC0-24 [6]: 82.3 ng·h/mL | AUC0-24/D [6]: 0.823 (hr*ng/mL)/mg | AUC0-∞ [6]: 85 ng·h/mL | C24 [6]: BLQ | CL/F [6]: 1280 L/h | Cmax [6]: 20.1 ng/mL | Cmax/D [6]: 0.201 (ng/mL)/mg | t1/2 [6]: 2.36 h | AUC0-12 [7]: 92.4 ng·h/mL | AUC0-24 [7]: 99.8 ng·h/mL | AUC0-24/D [7]: 0.998 (hr*ng/mL)/mg | AUC0-∞ [7]: 105 ng·h/mL | C24 [7]: BLQ | CL/F [7]: 1450 L/h | Cmax/D [7]: 0.213 (ng/mL)/mg | t1/2 [7]: 2.49 h | AUC0-12 [8]: 51.2 ng·h/mL | AUC0-∞ [8]: 51.7 ng·h/mL | C12 [8]: BLQ | CL/F [8]: 1940 L/h | Cmax [8]: 17.7 ng/mL | Cmax/D [8]: 0.177 (ng/mL)/mg | t1/2 [8]: 1.37 h | AUC0-12 [9]: 55.5 ng·h/mL | AUC0-∞ [9]: 55.9 ng·h/mL | C12 [9]: BLQ | CL/F [9]: 2100 L/h | Cmax [9]: 18.4 ng/mL | Cmax/D [9]: 0.184 (ng/mL)/mg | t1/2 [9]: 1.42 h | AUC0-12 [10]: 136 ng·h/mL | AUC0-24 [10]: 214 ng·h/mL | AUC0-24/D [10]: 1.07 (hr*ng/mL)/mg | AUC0-∞ [10]: 152 ng·h/mL | CL/F [10]: 658 L/h | Cmax [10]: 39.8 ng/mL | Cmax/D [10]: 0.398 (ng/mL)/mg | t1/2 [10]: 1.82 h | AUC0-12 [11]: 143 ng·h/mL | AUC0-24 [11]: 226 ng·h/mL | AUC0-24/D [11]: 1.13 (hr*ng/mL)/mg | AUC0-∞ [11]: 156 ng·h/mL | CL/F [11]: 675 L/h | Cmax [11]: 44.1 ng/mL | Cmax/D [11]: 0.441 (ng/mL)/mg | t1/2 [11]: 1.87 h | AUC0-12 [12]: 127 ng·h/mL | AUC0-∞ [12]: 137 ng·h/mL | C12 [12]: BLQ | CL/F [12]: 788 L/h | Cmax [12]: 29.8 ng/mL | Cmax/D [12]: 0.298 (ng/mL)/mg | t1/2 [12]: 2.82 h | AUC0-12 [13]: 129 ng·h/mL | AUC0-∞ [13]: 139 ng·h/mL | C12 [13]: BLQ | CL/F [13]: 800 L/h | Cmax [13]: 31.3 ng/mL | Cmax/D [13]: 0.313 (ng/mL)/mg | t1/2 [13]: 2.86 h | AUC0-12 [14]: 142 ng·h/mL | AUC0-24 [14]: 278 ng·h/mL | AUC0-24/D [14]: 1.39 (hr*ng/mL)/mg | AUC0-∞ [14]: 168 ng·h/mL | C12 [14]: 6.27 ng/mL | CL/F [14]: 699 L/h | Cmax [14]: 25.8 ng/mL | Cmax/D [14]: 0.258 (ng/mL)/mg | t1/2 [14]: 3.52 h | AUC0-12 [15]: 145 ng·h/mL | AUC0-24 [15]: 282 ng·h/mL | AUC0-24/D [15]: 1.41 (hr*ng/mL)/mg | AUC0-∞ [15]: 173 ng·h/mL | CL/F [15]: 717 L/h | Cmax/D [15]: 0.284 (ng/mL)/mg | t1/2 [15]: 3.80 h | AUC0-12 [16]: 114 ng·h/mL | AUC0-24 [16]: 121 ng·h/mL | AUC0-24/D [16]: 1.21 (hr*ng/mL)/mg | AUC0-∞ [16]: 121 ng·h/mL | C12 [16]: BLQ | C24 [16]: BLQ | CL/F [16]: 874 L/h | Cmax [16]: 28.5 ng/mL | Cmax/D [16]: 0.285 (ng/mL)/mg | t1/2 [16]: 2.64 h | AUC0-12 [17]: 115 ng·h/mL | AUC0-24 [17]: 122 ng·h/mL | AUC0-24/D [17]: 1.22 (hr*ng/mL)/mg | AUC0-∞ [17]: 122 ng·h/mL | C12 [17]: BLQ | C24 [17]: BLQ | CL/F [17]: 880 L/h | Cmax [17]: 30.0 ng/mL | Cmax/D [17]: 0.300 (ng/mL)/mg | t1/2 [17]: 2.73 h | Mean CL/F, Day 1 (200 mg KAR5585 BID, fed): 830 L/h | Mean steady-state CL/F, Day 14 (200 mg KAR5585 BID, fed): 1200 L/h | mean Cmax plasma concentrations, range on all dosing days (200 mg KAR5585 BID, fed, Cohort 3): 42.6 to 90.9 ng/mL | AUC0-12 [18]: 243 ng·h/mL | AUC0-∞ [18]: 258 ng·h/mL | C12 [18]: 5.60 ng/mL | CL/F [18]: 774 L/h | Cmax [18]: 80.7 ng/mL | Cmax/D [18]: 0.403 (ng/mL)/mg | t1/2 [18]: 2.81 h | AUC0-12 [19]: 257 ng·h/mL | AUC0-∞ [19]: 275 ng·h/mL | C12 [19]: 5.61 ng/mL | CL/F [19]: 830 L/h | Cmax [19]: 87.8 ng/mL | Cmax/D [19]: 0.439 (ng/mL)/mg | t1/2 [19]: 2.91 h | AUC0-12 [20]: 333 ng·h/mL | AUC0-24 [20]: 583 ng·h/mL | AUC0-24/D [20]: 1.46 (hr*ng/mL)/mg

From patent publication US20240041877A1, “DOSAGE REGIME AND METHOD FOR TREATING PULMONARY ARTERIAL HYPERTENSION” (Altavant Sciences GmbH, priority 2019, published 2024)
